The source of these data is patent US20020028807A1, “Non-nucleoside reverse transcriptase inhibitors” (priority 2000, published 2002).

The target of one assay is T1, HIV-1 RT wild-type (WT) (Human immunodeficiency virus type 1 group M subtype B, UniProt P03366).
T1 construct: an HIV RT clone pKRT2 containing only the RT p66 gene regulated by the lac operon/trc promoter; made in house; host or cells: E. coli JM109, vector pKK233-2
Kind of assay: Reverse transcriptase (RT) assay, wild-type enzyme. It is filed as biochemical.

A further assay deals with T2, HIV-1 RT K103N (Human immunodeficiency virus type 1 group M subtype B, UniProt P03366, K702N).
T2 construct: an HIV RT clone pKRT2 containing only the RT p66 gene regulated by the lac operon/trc promoter; made in house; host or cells: E. coli JM109, vector pKK233-2
Kind of assay: Reverse transcriptase (RT) assay, K103N mutant. Format: biochemical. In a few lines:
(§1)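 Compounds are evaluated against recombinant HIV-1 RT mutants in a cell-free polymerase reaction. The reaction uses poly r(C)·oligo d(G)-biotin and radiolabelled 3H-dGTP.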

The target of a further assay is T3, HIV-1 RT V106A (Human immunodeficiency virus type 1 group M subtype B, UniProt P03366, V705A).
T3 construct: an HIV RT clone pKRT2 containing only the RT p66 gene regulated by the lac operon/trc promoter; made in house; host or cells: E. coli JM109, vector pKK233-2
Kind of assay: Reverse transcriptase (RT) assay, V106A mutant. It is filed as biochemical. Put shortly:
as §1

A further assay concerns the target T4, HIV-1 RT Y188C (Human immunodeficiency virus type 1 group M subtype B, UniProt P03366, Y787C).
T4 construct: an HIV RT clone pKRT2 containing only the RT p66 gene regulated by the lac operon/trc promoter; made in house; host or cells: E. coli JM109, vector pKK233-2
In words: Reverse transcriptase (RT) assay, Y188C mutant. Format: biochemical. The source says:
Among the enzymes for which Human Immunodeficiency Virus (HIV-1) encodes is a reverse transcriptase (1), so-named because it transcribes a DNA copy from an RNA template. This activity can be quantitatively measured in a cell-free enzyme assay and is based upon the observation that reverse transcriptase is able to use a synthetic template poly r(C) primed with a biotinylated oligo d(G) to transcribe a radio-labelled DNA strand utilising 3H-dGTP as a substrate. The assay described below utilises the wild-type enzyme (which is the predominant form of the enzyme observed in patients infected with HIV-1) and can also be used with mutant RT enzymes (for example, Y181C, prepared by site-directed mutagenesis in which the tyrosine residue at codon 181 has been replaced by a cysteine residue) in analogous assay conditions. This assay allows compounds to be evaluated for their effectiveness at inhibiting the mutant enzymes.
Some HIV-1 IIIB clone BH10 RT mutants were provided by Dr. C.-K. Shih (Boehringer Ingelheim Pharmaceutials Inc., U.S.A.) in the vector pKK233-2 (Pharmacia). Briefly an HIV RT clone pKRT2 containing only the RT p66 gene regulated by the lac operon/trc promoter was obtained from Dr. W. Summers (Yale University) (2). A variety of specific amino acid substitutions were introduced into the wild-type RT gene by site-directed mutagenesis. RT clones were subcloned into the pKK233-2 bacterial expression vector. Clones provided included wild-type, Val106Ala, Tyr181Cys, Tyr188Cys, Tyr188Leu, Gly190Ala and Pro236Leu. Others were made in-house by site-directed mutagenesis of the pKK233-2 RT clones including Lys103Asn, Lys103Asn/Tyr181Cys, Lys103Asn/Leu100Ile, Lys103Asn/Pro225His, and Lys103Asn/Val108Ile.
Purification of recombinant reverse transcriptase was performed using a combination of methods previously described (3). A single colony from a fresh plate of transformed JM109 cells was used to initiate growth of a pre-culture grown o/n at 37° C. Two liters of growth medium were inoculated with this pre-culture. At OD600˜1.5 (5-6 h at 37° C.), RT gene expression was induced with IPTG (1 mM final), and the fermentation was continued for a few more hours at 37° C. After centrifugation, supernatants were discarded while cell pellets were pooled and stored at −80° C. until purification. Cells were thawed at 4° C. overnight and suspended in lysis buffer (MES 50 mM pH 6, EDTA 1 mM, 10% v/v glyerol, 0.02% w/v OBG, 0.02% w/v sodium azide). Lysozyme was added and the mixture was incubated on ice for 40 minutes. After homogenization using a bounce in presence of lysozyme and sonication, the cells were centrifuged for 30 minutes. Supernatant (S1) was saved and stored at 4° C. The centrifuged pellet was resuspended in extraction buffer (MES 50 mM pH 6, KPO4 50 mM pH 6, KCl 100 mM, 10% v/v glycerol, 0.02% w/v OBG, 0.02% w/v sodium axide) and stirred for 30 minutes at 4° C. This second mixture was centrifuged again and the supernatant (S2) was saved. The above procedure was repeated 2 more times saving supernatants S3 and S4 and one last extraction was performed overnight (S5). Polymin P (0.005% final) was added to the combined supernatants to remove nucleic acids. This solution was stirred for 75 minutes at 4° C. and centrifuged for 1 h. The supernatant (SS1) was precipitated on ice with 20% w/v ammonium sulfate and stirred for 1 h at 4° C. The mixture was then centrifuged and the resulting supernatant (SS2) was precipitated with additional 40% w/v ammonium sulfate (60% total), stirred for 1 h and centrifuged again. The final pellet (P1) was stored overnight at 4° C. before undergoing purification the following day. All steps of the purification were performed at 4° C. unless otherwise stated.
Pellet (P1) was resuspended into MES 50 mM pH 6, KPO4 10 mM pH 6, KCl 100 mM, 10% v/v glycerol, 0.02% w/v OBG, 0.02% w/v sodium azide. The suspension was dialysis against the same buffer overnight using 12-14 kD MWCO dialysis tubing. […]

For another assay, the target named is T5, HIV-1 RT K103N/V108I (Human immunodeficiency virus type 1 group M subtype B, UniProt P03366, K702N/V707I).
T5 construct: an HIV RT clone pKRT2 containing only the RT p66 gene regulated by the lac operon/trc promoter; made in house; host or cells: E. coli JM109, vector pKK233-2
Kind of assay: Reverse transcriptase (RT) assay, K103N/V108I mutant. It is filed as biochemical. In a few lines:
as §1

Another assay has as its target T6, HIV-1 RT K103N/L100I (Human immunodeficiency virus type 1 group M subtype B, UniProt P03366, K702N/L699I).
T6 construct: an HIV RT clone pKRT2 containing only the RT p66 gene regulated by the lac operon/trc promoter; made in house; host or cells: E. coli JM109, vector pKK233-2
In words: Reverse transcriptase (RT) assay, K103N/L100I mutant. Format: biochemical. Put shortly:
as §1

The subject of assay [1] is HIV coding for wild-type reverse transcriptase (WT RT). In words: ELISA (p24) assay of HIV replication in C8166 cell culture, wild-type RT virus. As to conditions: Human immunodeficiency virus 1, C8166, 72 h, read-out: EC50 WT RT. Format: cell-based, HIV-1. In a few lines: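 C8166 T cells infected at MOI 0.001 with wild-type or mutant RT HIV, then grown 3 days with serial compound dilutions in RPMI 1640 + 10% FBS. Extracellular p24 in supernatant pooled from eight replica wells measured by ELISA; % inhibition calculated from p24 levels.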

The subject of assay [2] is HIV coding for mutant reverse transcriptase Y181C. Kind of assay: ELISA (p24) assay of HIV replication in C8166 cell culture, Y181C virus. As to conditions: Human immunodeficiency virus 1, C8166, 72 h, read-out: EC50 Y181C. It is filed as cell-based, HIV-1. How it is done: (§2) Compounds of the invention were tested for their ability to inhibit HIV replication in cell culture in a 96-well plate assay. Complete RPMI 1640, consisting of RPMI 1640+10% fetal bovine serum, 10 μg/ml gentamycin and 10 μM β-mercaptoethanol was used for dilution of the compound as well as cell growth medium. The T lymphocyte cell line C8166 was infected at a multiplicity of infection of 0.001 with viruses coding for wild-type and mutant reverse transcriptase. Cells were then incubated for three days in the presence of serial dilutions of the compounds of the invention. The supernatant was pooled from eight replica wells and the concentration of extracellular p24 was determined using a commercially available HIV-1 p24 antigen assay kit (Beckman-Coulter®). The level of inhibition (% inhibition) was calculated with the following equation: [formula]
In general terms: An ELISA detects its analyte on a solid surface through an enzyme-linked reagent.

Assay [3] concerns HIV coding for mutant reverse transcriptase K103N/V108I. In words: ELISA (p24) assay of HIV replication in C8166 cell culture, K103N/V108I virus. As to conditions: Human immunodeficiency virus 1, C8166, 72 h, read-out: EC50 K103N/V108I. It is filed as cell-based, HIV-1. How it is done:
as §2

Turning to `CCN1c2ncc(CCOc3cc[n+]([O-])c4ccccc34)cc2C(=O)N(C)c2cccnc21` [compound 21, 5,11-Dihydro-11-ethyl-5-methyl-8-{2-{(1-oxido-4-quinolinyl)oxy}ethyl}-6H-dipyrido[3,2-b:2′,3′-e][1,4]diazepin-6-one], the IC50 at HIV-1 RT wild-type (WT) was 17 nM; on HIV-1 RT K103N, 44 nM; on HIV-1 RT V106A it was 1110 nM; on HIV-1 RT Y188C, 9.9 nM; on HIV-1 RT K103N/V108I, 120 nM; at HIV-1 RT K103N/L100I, 168 nM. For the same molecule, the values for the EC50 in assay [1], in [2] and in assay [3] were 0.53 nM, 4.8 nM and 5 nM, respectively.
As to `CCN1c2ncc(CCOc3cc[n+]([O-])c4ccccc34)cc2C(=O)N(C)c2ccc(F)nc21` [compound 11, 5,11-Dihydro-11-ethyl-2-fluoro-5-methyl-8-{2-{(1-oxido-4-quinolinyl)oxy}-ethyl}-6H-dipyrido[3,2-b:2′,3′-e][1,4]diazepin-6-one], the IC50 at HIV-1 RT wild-type (WT) came to 9.5 nM; at HIV-1 RT K103N, 18 nM; on HIV-1 RT V106A it was 336 nM; on HIV-1 RT Y188C, 6.6 nM; at HIV-1 RT K103N/V108I, 55 nM; at HIV-1 RT K103N/L100I it was 102 nM. Also, the EC50 amounted to 0.34 nM in assay [1], 4.1 nM in assay [2] and 3.9 nM in assay [3].
In the case of `CCN1c2ncc(CCOc3cc[n+]([O-])c4ccccc34)cc2C(=O)N(C)c2ccc(Cl)nc21` [compound 17, 2-Chloro-5,11-dihydro-11-ethyl-5-methyl-8-{2-{(1-oxido-4-quinolinyl)oxy}-ethyl}-6H-dipyrido[3,2-b:2′,3′-e][1,4]diazepin-6-one], the IC50 at HIV-1 RT wild-type (WT) came out at 14 nM; at HIV-1 RT K103N, 25 nM; on HIV-1 RT V106A it was 319 nM; at HIV-1 RT Y188C, 8.1 nM; on HIV-1 RT K103N/V108I it was 83 nM; on HIV-1 RT K103N/L100I it was 40 nM. For the same molecule, the EC50 in [1] was 0.34 nM; in assay [2], 2.8 nM; in assay [3], 2.7 nM.

Usually IC50 stands for the concentration that gives 50% inhibition.
